Earlier results, collected in PMC11571109, “Covalent Inhibitors of S100A4 Block the Formation of a Pro-Metastasis Non-Muscle Myosin 2A Complex” (Journal of Medicinal Chemistry, 2024).
pIC50: −log10 of the molar value.

Tested on: S100A4
Design: method as in PMID 20421509
Settings: by inducing oligomerization; read-out: IC50 S100A4 inhibition; cited from earlier work

For `c1ccc2c(c1)Nc1ccccc1S2` [phenothiazine], the pIC50 is given as ~4.00.
